Results on three compounds are retold here after patent US20100028447A1, “Intranasal, Buccal, And Sublingual Administration Of Metanicotine Analogs” (TARGACEPT, INC., priority 2007, published 2010).

Data set [1] is described as follows: Permeation across cultured human respiratory epithelium (EpiAir tissue), apical-to-basolateral Papp. Particulars: human, pH 7.4, Papp. An excerpt: (§1) An in vitro model of MatTek EpiAir® tissue was used for the permeability assessment of the test articles and control compounds. The EpiAir® culture consists of cells that have been cultured to form a pseudo-stratified, highly differentiated model closely resembling the epithelial tissue of the human respiratory tract. The histological cross-sections of the cultured tissue reveal a pseudo-stratified mucociliary phenotype.
(§2) EpiAir® tissues plated in 12 well plates were pre-equilibrated for the assay by culturing them for 24 hours at 37° C. with 5% CO2 in a humidified incubator. On the day of the assay, the cultures were washed two times with Dulbeccos' Phosphate Buffered Saline (DPBS buffer) at pH 7.4, and then dosed with donor and receiver buffer applied to the apical and basolateral surfaces of the culture, respectively. The receiver buffer consisted of DPBS, at pH 7.4. The donor solution consisted of DPBS buffer containing the appropriate compounds as specified in Table 1. All treatments were performed in triplicate. The receiver buffer was sampled at 15, 30, 60, and 120 minutes, and the donor buffer was sampled at 120 minutes.
(§3) The Lucifer Yellow concentration in the receiver samples was measured using a FluoStar fluorescence plate reader (BMG Laboratories, Durham, N.C.).
(§4) The apparent permeability coefficient, Papp, was calculated as follows: […]
(§5) where: dCr/dt is the slope of the cumulative concentration in the receiver compartment versus time; Vr is the volume of the receiver compartment; A is the surface area of epithelium available for permeation; and Co is the dosing solution concentration.

Data set [2] concerns cultured human respiratory epithelium. In words: in vitro.
Description: as §1, §2, §3, §4, §5

Data set [3] is described as follows: In situ brain perfusion, single time-point method. On the procedure: Animals used in this study were Sprague-Dawley rats (approximate weight 250-300 grams), obtained from Hilltop Lab Animals, Scottdale, Pa. Upon arrival, the rats were assigned randomly to treatment groups and acclimated for at least 24 hours. The animals were housed two per cage and identified by cage labels. A single room was used for this study. The animals were supplied with water and a commercial rodent diet ad libitum. On the day of the experiment, each rat was anesthetized intraperitoneally with Ketamine HCl/Xylazine HCl solution prior to being implanted with a cannula into the left carotid artery. Branch arteries were […], and the cardiac supply was cut off prior to brain perfusion.
Perfusion was performed using the single time-point method. […] Following 30 seconds of perfusion, the pump was stopped, and the brain was removed from the skull immediately. The brain was cut longitudinally in […]. Each left cerebral hemisphere was placed into a chilled tube, frozen on dry ice, and stored frozen at −60° C. to −80° C. until analyzed. […] Test articles were perfused at concentrations of 50 μM. The outline of the experimental treatments and the target and measured concentrations of the test articles and control compounds in the perfusate are presented in Table 3.
The left brain hemisphere from each rat was thawed and weighed. Methanol (20% aqueous) was added to each left brain hemisphere at approximately 4 mL per 1 g of brain tissue, and the mixture was homogenized using sonication with a VirSonic Ultrasonic Cell Disruptor 100 (VirTis). The test articles and two reference compounds were analyzed in the resulting homogenate by using LC/MS/MS.
The unidirectional brain transfer constants Kin (mL/g/min) were determined for the test articles and the high permeability reference, antipyrine, using the following equation for the single-point perfusion assay: […]
where: Cbr/Cpf is the apparent brain distribution volume (mL/g of brain tissue); Cbr is the concentration of drug in the brain tissue (pmol of drug per g of brain tissue); Cpf is the drug concentration in the perfusion fluid (pmol/mL of perfusate); and t is the net perfusion time (minutes).
Graphic representation and statistical analyses of the data were performed using GraphPad Prism software.

Setting [4] is: Treatment 3: MAO substrate Phenylethylamine assayed with controls, Average ± STD.
The mark [5] stands for this setting: Treatment 3: MAO substrate Phenylethylamine assayed with controls, Rep 1.
[6] abbreviates: Treatment 3: MAO substrate Phenylethylamine assayed with controls, Rep 2.
[7] abbreviates: Treatment 3: MAO substrate Phenylethylamine assayed with controls, Rep 3.
Where [8] appears, read: Treatment 4: Phenylethylamine assayed with controls + MAO inhibitor Pargyline, Average ± STD.
The mark [9] stands for this setting: Treatment 4: Phenylethylamine assayed with controls + MAO inhibitor Pargyline, Rep 1.
Where [10] appears, read: Treatment 4: Phenylethylamine assayed with controls + MAO inhibitor Pargyline, Rep 2.
[11] abbreviates: Treatment 4: Phenylethylamine assayed with controls + MAO inhibitor Pargyline, Rep 3.
Setting [12] is: Table 4 Treatment 1: Compound B perfused with references, Average ± STD.
[13] abbreviates: Table 4 Treatment 1: Compound B perfused with references, Rat 1.
Setting [14] is: Table 4 Treatment 1: Compound B perfused with references, Rat 2.
Where [15] appears, read: Table 4 Treatment 1: Compound B perfused with references, Rat 3.
The mark [16] stands for this setting: Table 4 Treatment 2: Compound B perfused with references + MAO inhibitor Pargyline, Average ± STD.
The mark [17] stands for this setting: Table 4 Treatment 2: Compound B perfused with references + MAO inhibitor Pargyline, Rat 1.
The mark [18] stands for this setting: Table 4 Treatment 2: Compound B perfused with references + MAO inhibitor Pargyline, Rat 2.
The mark [19] stands for this setting: Table 4 Treatment 2: Compound B perfused with references + MAO inhibitor Pargyline, Rat 3.
[20] abbreviates: Table 5 Treatment 1: Compound A perfused with references, Average ± STD.
Setting [21] is: Table 5 Treatment 1: Compound A perfused with references, Rat 1.
[22] abbreviates: Table 5 Treatment 1: Compound A perfused with references, Rat 2.
The mark [23] stands for this setting: Table 5 Treatment 1: Compound A perfused with references, Rat 3.
Where [24] appears, read: Table 5 Treatment 2: Compound A perfused with references + CYP2D6 inhibitor Quinidine, Average ± STD.
The mark [25] stands for this setting: Table 5 Treatment 2: Compound A perfused with references + CYP2D6 inhibitor Quinidine, Rat 1.
The mark [26] stands for this setting: Table 5 Treatment 2: Compound A perfused with references + CYP2D6 inhibitor Quinidine, Rat 2.
The mark [27] stands for this setting: Table 5 Treatment 2: Compound A perfused with references + CYP2D6 inhibitor Quinidine, Rat 3.

In the case of `NCCc1ccccc1` [Phenylethylamine], the Papp at 120 min stood at 18.94 ± 0.1 ×10⁻⁶ cm/s in data set [1] (setting [4]); 18.8 ×10⁻⁶ cm/s in data set [1] (setting [5]); 18.9 ×10⁻⁶ cm/s in data set [1] (setting [6]); 19 ×10⁻⁶ cm/s in data set [1] (setting [7]); 35.2 ± 0.98 ×10⁻⁶ cm/s in data set [1] (setting [8]); 34.5 ×10⁻⁶ cm/s in data set [1] (setting [9]). The Papp at 120 min in data set [1] (setting [10]) came to 36.3 ×10⁻⁶ cm/s; in data set [1] (setting [11]), 34.7 ×10⁻⁶ cm/s. Further, in data set [2], the “Permeation (Papp) in the presence of the MAO inhibitor Pargyline compared to alone” value was “significant increased”.
As to Lucifer Yellow, the Papp in data set [2] (Treatment 1: Compound B assayed with controls, Average ± STD) is 14.40 ± 0.37 ×10^−6 cm/s; in data set [2] (Treatment 1: Compound B assayed with controls, Rep 1), 1.481e-05 cm/s; in data set [2] (Treatment 1: Compound B assayed with controls, Rep 2), 1.411e-05 cm/s; in data set [2] (Treatment 1: Compound B assayed with controls, Rep 3), 1.426e-05 cm/s; in data set [2] (Treatment 2: Compound B assayed with controls + MAO inhibitor Pargyline, Average ± STD), 15.10 ± 0.11 ×10^−6 cm/s; in data set [2] (Treatment 2: Compound B assayed with controls + MAO inhibitor Pargyline, Rep 1), 1.509e-05 cm/s. Further, the Papp was 1.5e-05 cm/s in data set [2] (Treatment 2: Compound B assayed with controls + MAO inhibitor Pargyline, Rep 2); 1.521e-05 cm/s in data set [2] (Treatment 2: Compound B assayed with controls + MAO inhibitor Pargyline, Rep 3); 14.82 ± 0.88 ×10^−6 cm/s in data set [2] (setting [4]); 1.561e-05 cm/s in data set [2] (setting [5]); 1.388e-05 cm/s in data set [2] (setting [6]); 1.499e-05 cm/s in data set [2] (setting [7]). Further, the Papp in data set [2] (setting [8]) was 13.76 ± 0.46 ×10^−6 cm/s; in data set [2] (setting [9]), 1.327e-05 cm/s; in data set [2] (setting [10]), 1.382e-05 cm/s; in data set [2] (setting [11]) it was 1.42e-05 cm/s; in data set [2] (Treatment 5: Compound A assayed with controls, Average ± STD), 14.56 ± 1.33 ×10^−6 cm/s; in data set [2] (Treatment 5: Compound A assayed with controls, Rep 1), 1.491e-05 cm/s. Further, the Papp in data set [2] (Treatment 5: Compound A assayed with controls, Rep 2) is 1.309e-05 cm/s; in data set [2] (Treatment 5: Compound A assayed with controls, Rep 3), 1.568e-05 cm/s; in data set [2] (Treatment 7: CYP2D6 substrate Bufuralol assayed with controls, Average ± STD) it was 13.88 ± 0.56 ×10^−6 cm/s; in data set [2] (Treatment 7: CYP2D6 substrate Bufuralol assayed with controls, Rep 1) it was 1.355e-05 cm/s; in data set [2] (Treatment 7: CYP2D6 substrate Bufuralol assayed with controls, Rep 2), 1.357e-05 cm/s; in data set [2] (Treatment 7: CYP2D6 substrate Bufuralol assayed with controls, Rep 3) it was 1.452e-05 cm/s.
For the compound `Cc1cc(=O)n(-c2ccccc2)n1C` [Antipyrine, reference compound], the “Brain Concentration (corrected for drug retained in vascular volume)” value (from here on “Brain Concentration”) in data set [3] (setting [12]) was 1083.1 ± 141.4 pmol/g; in data set [3] (setting [13]) it was 1123.1 pmol/g; in data set [3] (setting [14]), 1200.2 pmol/g; in data set [3] (setting [15]) it was 926.0 pmol/g; in data set [3] (setting [16]), 888.5 ± 47.9 pmol/g; in data set [3] (setting [17]), 833.1 pmol/g. For the same compound, the “Brain Concentration” value in data set [3] (setting [18]) is 914.3 pmol/g; in data set [3] (setting [19]), 918.0 pmol/g; in data set [3] (setting [20]) it was 1157.1 ± 239.3 pmol/g; in data set [3] (setting [21]) it was 1426.6 pmol/g; in data set [3] (setting [22]), 1074.9 pmol/g; in data set [3] (setting [23]), 969.7 pmol/g. The “Brain Concentration” value in data set [3] (setting [24]) is given as 1124.7 ± 135.5 pmol/g; in data set [3] (setting [25]) it was 977.7 pmol/g; in data set [3] (setting [26]), 1244.5 pmol/g; in data set [3] (setting [27]), 1151.8 pmol/g. Also, the Kin in data set [3] (setting [12]) came out at 0.342 ± 0.045 mL/g/min; in data set [3] (setting [13]), 0.355 mL/g/min; in data set [3] (setting [14]) it was 0.379 mL/g/min; in data set [3] (setting [15]), 0.292 mL/g/min; in data set [3] (setting [16]) it was 0.300 ± 0.016 mL/g/min; in data set [3] (setting [17]), 0.282 mL/g/min. In addition, the Kin in data set [3] (setting [18]) was found to be 0.309 mL/g/min; in data set [3] (setting [19]) it was 0.310 mL/g/min; in data set [3] (setting [20]), 0.376 ± 0.078 mL/g/min; in data set [3] (setting [21]) it was 0.463 mL/g/min; in data set [3] (setting [22]) it was 0.349 mL/g/min; in data set [3] (setting [23]) it was 0.315 mL/g/min. Besides, the Kin in data set [3] (setting [24]) is given as 0.386 ± 0.047 mL/g/min; in data set [3] (setting [25]) it was 0.336 mL/g/min; in data set [3] (setting [26]), 0.427 mL/g/min; in data set [3] (setting [27]), 0.395 mL/g/min.
